Structures can show the parent of a compound that is named as a salt. Where two headings read alike, the source gives them in different places.
Tests used:
[1] = system: contraction of guinea pig ileum induced by electrical field stimulation (acetylcholine release); assay: Effect of increasing contraction of guinea pig ileum induced by electrical field stimulation; assay type: cell-based; conditions: electrical field stimulation once per 10 seconds, cumulative addition at intervals of 10 minutes, 37° C., read-out: Min. concn. causing increment of ileal contraction
Protocol: Effect of increasing contraction of guinea pig ileum induced by electrical field stimulation
This experiment was made according to the method of Sanger et al. [see Br. J. Pharmacol., 91, 77-87 (1987)]. The longitudinal muscle of the nonterminal ileum of a guinea pig was separated and vertically suspended in the Krebs-Henseleit solution (37° C.) in a Magnus tube by applying a load of 0.5 g to the end of the muscle. A mixed gas comprising 95% of oxygen and 5% of carbon dioxide was passed through the solution. The contraction of the muscle was isometrically determined. Electrical field stimulation was applied to the muscle by the use of a platinum electrode once per 10 seconds to induce the contraction of the muscle. The contraction was caused through the release of acetylcholine. After the muscle had been stabilized, a solution of a test compound was cumulatively added into the Magnus tube at intervals of 10 minutes. The effect of the test compound is represented by percentage based on the initial contraction. The minimum concentration of each test compound at which an increment was found in the contraction due to the release of acetylcholine is shown in Table 4.

[2] = system: gastric emptying function; assay: Activity for raising gastric emptying function; assay type: in vivo, Fischer male rats; conditions: oral (5 ml/kg), one hour before test food, versus control rat
Protocol: Activity for raising gastric emptying function
This experiment was made according to the method of Decktot et al. [see Eur. J. Pharmacol., 147, 313-316 (1988)]. Fischer male rats (weight: 160 to 180 g) were fasted for 18 hours before 3 ml of a test food comprising methylcellulose, beef broth, casein, sugar and corn starch was orally administered to each rat. One hour after the administration, the stomach was extirpated from each rat. The gastric emptying ratio was calculated from the weight of the test food remaining in the stomach. The ratio of rise of the gastric emptying function was determined by comparing the gastiric emptying ratio of a medicated rat with that of a control rat which had not administered any test compounds. Each test compound (5 ml/kg) was orally administered one hour before the administration of the test food. BRL 24682 was used as a control in this experiment.

[3] = system: cisplatin-induced vomiting; assay: Activity against cisplatin-induced vomiting of beagle; assay type: in vivo; conditions: intravenous, one hour after cisplatin 3 mg/kg, 5-hour observation
Protocol: Activity against cisplatin-induced vomiting of beagle
Beagles weighing 7 to 12 kg were used. 3 mg/kg of cisplatin (a product of Sigma) (1 ml/kg of physiological saline) was administered to each beagle through the vein of its forefoot. One hour after the administration of cisplatin, physiological saline (0.2 ml/kg) was administered to a control group of beagles and a solution of a test compound in physiological saline was administered to a test group of beagles, each through the vein of the other forefoot. The frequency of vomiting observed over a 5-hour period from the administration of cisplatin was recorded and the inhibitory ratio of the test compound was calculated according to the following formula.

[4] = target: T1, 2-methylserotonin-induced contraction of the ileum (5-HT3 antagonism) (Cavia porcellus, UniProt O70212); assay: Antagonism against 2-methylserotonin-induced contraction or systole of ileum; assay type: cell-based, guinea pig (Hartley male); conditions: test compound added 30 minutes before 2-methylserotonin; nonterminal ileum, 37° C.; read-out: pA2 (converted)
T1 construct: from tissue; host or cells: isolated nonterminal ileum of male Hartley guinea pig
T1 sequence (O70212 20-490): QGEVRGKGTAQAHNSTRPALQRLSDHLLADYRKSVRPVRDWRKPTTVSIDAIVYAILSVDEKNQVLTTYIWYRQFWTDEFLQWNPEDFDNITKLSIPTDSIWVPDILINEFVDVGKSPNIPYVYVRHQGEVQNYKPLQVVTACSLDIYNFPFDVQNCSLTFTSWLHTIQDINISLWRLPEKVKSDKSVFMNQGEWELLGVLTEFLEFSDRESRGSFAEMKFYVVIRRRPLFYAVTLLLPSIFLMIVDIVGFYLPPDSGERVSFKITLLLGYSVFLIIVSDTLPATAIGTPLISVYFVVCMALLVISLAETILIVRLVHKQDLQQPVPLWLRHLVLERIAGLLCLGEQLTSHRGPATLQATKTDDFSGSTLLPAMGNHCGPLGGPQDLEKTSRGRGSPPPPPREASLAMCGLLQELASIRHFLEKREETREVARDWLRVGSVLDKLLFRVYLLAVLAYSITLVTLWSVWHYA
Protocol: Antagonism against 2-methylserotonin-induced contraction or systole of ileum
This experiment was made according to the method of Sanger et al. [see Eur. J. Pharmacol., 159, 113-124 (1989)]. The nonterminal ileum of a Hartley male guinea pig was suspended in the Krebs-Henseleit solution (37° C.) by applying a load of 0.5 g to the end of the ileum and a gaseous mixture comprising 95% of oxygen and 5% of carbon dioxide was passed through the solution. The contraction of the ileum was isometrically determined. After allowing the ileum to stand for one or more hours for stabilization, a solution of a test compound was added to the solution, and after 30 minutes, 2-methylserotonin was noncumulatively added. The pA2 value was calculated from the rightward shift of the dose-response curve of the 2-methylserotonin-induced contraction caused by the test compound according to the method of Rossum et al. [see Arch. Int. Pharmacodyn., 143, 299(1963)]. BRL 24682 was used as a control in this experiment.

rat = assay: Oral toxicity in rat, one week; assay type: in vivo; conditions: dose of up to 30 mg/kg
[5] = listed as 42 (+)-isomer, hydrochloride
[6] = listed as 43 (-)-isomer, hydrochloride

SMILES | minimal effective concentration [1, 5] | Ratio of rise of gastric emptying function [2, 5] | Inhibitory ratio against cisplatin-induced vomiting ([3]; 0.03 mg/kg) | Inhibitory ratio against cisplatin-induced vomiting ([3]; 0.1 mg/kg) | Kb [4] | toxicity on oral administration for one week (rat) | minimal effective concentration ([1]; listed as 4 (+)-isomer, hydrochloride) | Ratio of rise of gastric emptying function [2] | minimal effective concentration [1, 6] | Ratio of rise of gastric emptying function [2, 6] | minimal effective concentration ([1]; Cavia porcellus, 10 min) | Inhibitory ratio against cisplatin-induced vomiting ([3]; 0.3 mg/kg)
C#CCC(C)Oc1cc(N)c(Cl)cc1C(=O)N[C@H]1C[C@H]2CC[C@@H](C1)N2C (single isomer, unassigned; (+)) [Example 42, (+)-endo-4-Amino-5-chloro-N-(8-methyl-8-azabicyclo[3.2.1]oct-3-yl)-2-{(4-pentyn-2-yl)oxy}benzamide hydrochloride] | 0.086 µM | 22.2% | 59% | 92% | 1.2 nM | – | – | – | – | – | – | –
CC#CC(C)Oc1cc(N)c(Cl)cc1C(=O)N[C@H]1C[C@H]2CC[C@@H](C1)N2C (single isomer, unassigned; (-)) [Example 4, (-)-endo-4-Amino-5-chloro-N-(8-methyl-8-azabicyclo[3.2.1]oct-3-yl)-2-{(3-pentyn-2-yl)oxy)benzamide hydrochloride] | – | – | 37% | 78% | 2.69 nM | no toxicity was exhibited in a dose of up to 30 mg/kg | 0.056 µM | 31.1% | – | – | – | –
C#CCC(C)Oc1cc(N)c(Cl)cc1C(=O)N[C@H]1C[C@H]2CC[C@@H](C1)N2C (single isomer, unassigned; (-)) [Example 43, (-)-endo-4-Amino-5-chloro-N-(8-methyl-8-azabicyclo[3.2.1]oct-3-yl)-2-{(4-pentyn-2-yl)oxy}benzamide hydrochloride] | – | – | – | – | – | no toxicity was exhibited in a dose of up to 30 mg/kg | – | – | 0.47 µM | 12.9% | – | –
C#CCOc1cc(N)c(Cl)cc1C(=O)N[C@H]1C[C@H]2CC[C@@H](C1)N2C [Example 21, endo-4-Amino-5-chloro-(8-methyl-8-azabicyclo[3.2.1]oct-3-yl)-2-propargyloxybenzamide hydrochloride] | – | – | – | – | 3.47 nM | – | – | 18.9% | – | – | 0.052 µM | 100%
CC(Oc1cc(N)c(Cl)cc1C(=O)N[C@H]1C[C@H]2CC[C@@H](C1)N2C)C1CCCC1 (stereo partly drawn) [Example 32, endo-4-Amino-5-chloro-2-(1-cyclopentylethoxy)-N-(8-methyl-8-azabicyclo[3.2.1]oct-3-yl)benzamide hydrochloride] | – | – | – | – | 0.933 nM | – | – | 18.3% | – | – | > 100 µM | –

Reference: patent US5389643A, “Aminobenzoic acid derivatives useful for treating gastro-intestinal conditions” (Eisai Co., Ltd., priority 1992, dated 1995)
